In data set [1] the target is amyloid precursor protein (APP) (Mus musculus (Mouse), UniProt P12023). As to the kind of experiment: Amyloid precursor protein in primary cortical neurons (Western blot). Type of data set: cell-based. The note with it: 48 hr. How it is done:
Primary cortical neurons were harvested and isolated from mice, and then were cultured in line with methodologies known in the art. In brief, embryonic day 15-18 mouse pups were obtained from timed pregnant female mice (5 pups). Within a laminar flow cell culture hood, the brain was removed from these mouse pups and the meninges and blood vessels were carefully removed. […] Maintained on wet ice, individual cells were then isolated by titrating some 10 times to dissociate cells by use of using a glass pasture pipette with a fire polished tip. […]
Following maintenance in cell culture (>24 hr) primary cortical neurons were challenged to known concentrations of experimental drugs for 48 hr, or vehicle (culture media) alone. […] Quantification of select proteins, for example AAP was undertaken by Western Blotting using the APP N-terminal antibody (22C11) obtained from Chemicon (Temecula, Calif.). The housekeeping protein β-actin quantified in the same samples to allow normalization, and was probed with anti-β-actin (Chemicon). The Western blots were developed by using chemiluminescence (PIERCE), were visualized with a Phospholmager (BioRad, Hercules, Calif.), and resulting bands were quantified by QuantityOne software (BioRad).

The next data set has as its system SH-SY5Y cells. As to the kind of experiment: H2O2-induced oxidative stress in SH-SY5Y cells (MTS assay). In kind it is cell-based, human. The settings on record: phenserine 10 and 30 μM, 100 μM H2O2, 24 hr.
The subject of data set [2] is APP/PS1 AD transgenic (Tg) male mice. The data set is described as follows: Concussive mTBI in APP/PS1 AD Tg mice, immunohistochemistry 72 hr post injury. Type of data set: in vivo, mouse. The settings on record: 72 hr post TBI. From the text:
To study this in a model for prevention of progression of TBI pathologies into AD with resulting neuronal cell dysfunction and death, together with neuroinflammation, we used already ongoing, aged (10 to 12 month old) APP/PS1 AD transgenic (Tg) male mice were challenged with mTBI (concussive 30 g weight drop), followed by similar (−)-phenserine or vehicle post-treatment.
To similarly cross-validate this in the more complex model of aged (10 to 12 month old) APP/PS1 AD Tg male mice, animals were challenged with mTBI (concussive 30 g weight drop) followed by (−)-phenserine or vehicle post-treatment. […] Likewise, co-localization of proinflammatory TNF-α was elevated within IBA1+ microglia across brain regions in AD Tg APP/PS1 mice with and without mTBI, and this trend was mitigated by (−)-phenserine post treatment in mTBI challenged animals (FIG. 23).
(−)-Phenserine mitigates losses in synaptic integrity in wild and Tg mice subjected to weight drop injury. To evaluate whether mTBI-induced elevations in markers of cell loss (FJC) and neuroinflammation (TNF-α and IBA1+) are allied with a loss of synaptic integrity (which associates with cognitive loss (Wakade et al., 2010)), post- and pre-synaptic protein markers of synaptic integrity (post-synaptic density-95 (PSD-95) and synaptophysin, respectively) were immunohistochemically stained and quantified in control (w/o head injury) and mTBI challenged mice post-treated with vehicle or (−)-phenserine. […] These declines were mitigated by post treatment with (−)-phenserine. An alike trend was evident in mTBI challenged APP/PS1 AD Tg mice, and these reductions in post- and presynaptic proteins were similarly mitigated by post-treatment with (−)-phenserine (FIG. 25)

Data set [3] concerns cultured hippocampal neurons. The data set is described as follows: Glutamate-induced excitotoxicity in cultured neurons. The settings on record: phenserine 5 μM, glutamate 50 μM, 24 hr. In kind it is cell-based, rat (Sprague Dawley). On the procedure: Briefly, cultured hippocampal neurons in triplicate were prepared from 18-20 day rat (Sprague Dawley) embryos and were cultured for 7 days. […] Neuronal viability was assessed 24 hr after addition of glutamate. The results are plotted as percent neuronal survival±SEM. […] Twenty-four hours later cell viability was quantified (by MTS assay—using, for example but not limited to, the CellTiter 96 Aqueous One Solution Cell Proliferation Assay kit (Promega, Madison, Wis., USA) according to the manufacturer's instructions).

The nature of data set [4]: Plasma concentrations of phenserine and its metabolites in human plasma. In kind it is in vivo. How it is done:
The relationship between pharmacokinetic and pharmacodynamics evaluated in FIG. 15 was evaluated in aged volunteers. A total of 32 subjects (60-80 years of age, 11 males/21 females) were screened and enrolled. All participants provided informed consent, the conduct of the study were approved and overseen by the local Review IRB.
For pharmacokinetic (blood concentrations of primary drug and select metabolites) a dose […] additionally was evaluated.
These were centrifuged within 15 min of collection, and stored in a freezer at −70° C. freezer in marked polypropylene tubes until analysis. Phenserine levels were quantified by liquid chromatography/mass spectrometry (LC/MS/MS). In brief, analyses were undertaken on Perkin-Elmer (PE, Norwalk, USA) high performance liquid chromatographic (HPLC) instrumentation. Compound separation was performed on a Phenomenex LUNA C18 column (5 μM, 2.0 mm×150 mm; Torrance, USA), with a Phenomenex guard column (2 mm×30 mm). The mobile phase was 60% acetonitrile (HPLC grade) plus 40% ammonium acetate (v/v) with a flow rate of 0.4 mL/min. […] Thereafter, 2 mL of tert-butyl methyl ether was added and the sample was mixed and flash frozen. The organic layer was decanted, dried under a stream of nitrogen and reconstituted into 250 μL of mobile phase. Of this, a 60 μL sample was then injected into the HPLC.

Where [5] appears, read: 5 mg/kg BID, hippocampus and lateral cortex.

The results in this text go back to patent US10864192B2, “Compositions and methods for inhibiting brain trauma-induced neurodegeneration and related conditions” (priority 2016, dated 2020).

Chain of amyloid precursor protein (APP) (P12023 whole entry, looked up): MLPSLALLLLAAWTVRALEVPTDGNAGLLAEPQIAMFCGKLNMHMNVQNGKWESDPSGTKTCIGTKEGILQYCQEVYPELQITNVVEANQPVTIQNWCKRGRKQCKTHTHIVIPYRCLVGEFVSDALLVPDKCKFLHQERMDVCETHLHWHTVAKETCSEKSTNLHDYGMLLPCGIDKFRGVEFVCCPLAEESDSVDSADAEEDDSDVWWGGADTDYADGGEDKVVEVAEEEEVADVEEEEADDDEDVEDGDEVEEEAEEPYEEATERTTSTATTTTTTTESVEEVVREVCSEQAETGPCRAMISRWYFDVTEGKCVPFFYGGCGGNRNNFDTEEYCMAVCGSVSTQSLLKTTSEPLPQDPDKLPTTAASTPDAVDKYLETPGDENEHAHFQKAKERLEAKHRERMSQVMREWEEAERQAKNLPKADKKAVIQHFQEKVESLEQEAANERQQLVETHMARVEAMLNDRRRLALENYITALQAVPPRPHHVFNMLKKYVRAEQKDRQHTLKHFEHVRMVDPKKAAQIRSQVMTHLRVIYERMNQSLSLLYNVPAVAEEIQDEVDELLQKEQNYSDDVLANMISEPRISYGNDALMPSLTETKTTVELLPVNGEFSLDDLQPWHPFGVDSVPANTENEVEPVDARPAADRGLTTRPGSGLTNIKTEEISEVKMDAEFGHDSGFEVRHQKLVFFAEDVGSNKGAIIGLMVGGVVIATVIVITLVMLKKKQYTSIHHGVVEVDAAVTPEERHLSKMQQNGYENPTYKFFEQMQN

Turning to `CN1CC[C@@]2(C)c3cc(OC(=O)Nc4ccccc4)ccc3N(C)[C@@H]12` [phenserine, (−)-phenylcarbamoyleseroline], in data set [1], the “amyloid precursor protein level” value was “inhibition of amyloid precursor protein”. Further, in the data set with SH-SY5Y cells, the “H2O2-mediated neuronal toxicity (cell viability)” value is “significantly ameliorated”. Also, the “mTBI-induced activation of microglia (IBA1+ cells)” value in data set [2] (setting [5]) is given as “mitigated”. Moreover, in data set [2] (setting [5]), the “mTBI-induced neurodegeneration (Fluoro-Jade C+ cells)” value was “counteracted”. Further, the “mTBI-induced reductions in synaptophysin and PSD-95” value in data set [2] was “mitigated”. Further, the “mTBI-induced elevations in TNF-α within microglia (co-localized TNF-α and IBA1+ cells)” value in data set [2] (hippocampus and lateral cortex) is reported as “mitigated”. In addition, the “cell viability (percent neuronal survival)” value in data set [3] was 73.5 % of control levels. For the same molecule, the “Average Plasma Concentrations” value in data set [4] (Hour 1) is 3.02 ng/mL; in data set [4] (Hour 2) it was 2.09 ng/mL; in data set [4] (Hour 3) it was 1.08 ng/mL; in data set [4] (Hour 4), 0.31 ng/mL.
